Experimental data published in patent publication US8053585B2, “Protecting group for carboxylic acids that can be photolyzed by visible light” (Cornell Research Foundation, Inc., priority 2006, dated 2011).

System: GluR6 glutamate receptor
Assay: Whole-cell current recording with cell-flow method, HEK 293 cells expressing GluR6
Format: cell-based
Details: 1 mM DECM, −60 mV, pH 7.4, 22° C.
Excerpt: In whole-cell current recording experiments with DECM-caged glutamate, HEK 293 cells stably transfected with cDNA encoding the GluR6 were used. In whole-cell current recording experiments with DECM-caged glycine, HEK 293 cells were transiently transfected with the cDNA of the α1-subunit of the human glycine receptor by using the Polyfect™ transfection reagent (Qiagen GmbH, D-40724, Hilden, Germany). The cDNA of the α1-subunit was kindly provided by Professor H. Betz (Max-Plank-Institute for brain Research, Frankfurt, Germany). The cells were co-transfected with cDNA encoding the green fluorescent protein (pGreen Lantern plasmid, Life Technologies, Gaitherberg, Md.) to detect transfected cells (Chalfie et al., “Green Fluorescent Protein as a Marker for Gene Expression,” Science 263:802-805 (1994), which is hereby incorporated by reference in its entirety).
The cells were used for electrophysiological experiments between 24 and 72 h after each passage. Whole-cell currents evoked by glutamate or glycine (100 μM) were recorded using the whole-cell configuration (Hamill et al., “Improved Patch-Clamp Techniques for High-Resolution Current Recording From Cells and Cell-Free Membrane Patches,” Pfluegers Arch 391:85-100 (1981), which is hereby incorporated by reference in its entirety) at room temperature, −60 mV, and pH 7.4. The experiments using DECM-caged glutamate were carried out in the absence or presence of 2 mM DECM-caged glutamate (FIG. 5A) or 1 mM 7-N,N-diethylamino-4-hydroxymethylcoumarin (2) (FIG. 5B). Alternatively, the experiments using DECM-caged glycine were carried out in the absence or presence of 1 mM DECM-caged-glycine (FIG. 10). The solution in the recording pipet contained 120 mM CsCl, 10 mM EGTA, and 10 mM HEPES, adjusted to pH 7.4. The HEK cell bath solution contained 150 mM NaCl, 1 mM CaCl2, 10 mM HEPES, pH 7.4. The resistance of the recording electrode filled with buffer solution was typically 3-5 MΩ and the series resistance was 5-6 MΩ. The cells were held at a constant transmembrane voltage of −60 mV and room temperature (22° C.). […]

CCN(CC)c1ccc2c(CO)cc(=O)oc2c1 [DECM, 7-N,N-Diethylamino-4-hydroxymethylcoumarin]
whole-cell current evoked by 100 μM glutamate, presence vs absence of compound: do not inhibit
